In patent publication US8952024B2, “Herbicidal pyrimidone derivatives” (E I du Pont de Nemours and Company, priority 2009, dated 2015):

What was measured:
Assay in all cases: Test D pre-/postemergence plant response
Format in all cases: in vivo
[1] = test system: black mustard (Brassica nigra); conditions: Postemergence, scale 0 to 100 (0 no effect, 100 complete control)
Method in brief: (§1)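 Scores (0 no effect, 100 complete control) reflect visual assessment against untreated plants after 14 to 21 days. Treatments were pre- and postemergence sprays in solvent with surfactant.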

[2] = test system: quackgrass (Elytrigia repens); conditions: Postemergence
Method in brief: as §1

[3] = test system: green foxtail (Setaria viridis); conditions: Postemergence
Method in brief: as §1

[4] = test system: sandbur (southern sandbur, Cenchrus echinatus); conditions: Postemergence
Method in brief: as §1

[5] = test system: barnyardgrass (Echinochloa crus-galli); conditions: Postemergence, scale 0 to 100 (0 no effect, 100 complete control)
Method in brief: as §1

[6] = test system: dallisgrass (Paspalum dilatatum); conditions: Postemergence
Method in brief: as §1

[7] = test system: itchgrass (Rottboellia cochinchinensis); conditions: Postemergence
Method in brief: as §1

[8] = test system: johnsongrass (Sorghum halepense); conditions: Postemergence
Method in brief: as §1

[9] = test system: groundsel (common groundsel, Senecio vulgaris); conditions: Postemergence
Method in brief: as §1

[10] = test system: Italian ryegrass (Lolium multiflorum); conditions: Postemergence
Method in brief: as §1

[11] = test system: dayflower (Virginia (VA) dayflower, Commelina virginica); conditions: Postemergence
Method in brief: as §1

[12] = test system: field bindweed (Convolvulus arvensis); conditions: Postemergence
Method in brief: as §1

[13] = test system: purslane (common purslane, Portulaca oleracea); conditions: Postemergence
Method in brief: as §1

[14] = test system: mallow (common mallow, Malva sylvestris); conditions: Postemergence
Method in brief: as §1

[15] = test system: ragweed (common ragweed, Ambrosia elatior); conditions: Postemergence
Method in brief: as §1

[16] = test system: prickly sida (Sida spinosa); conditions: Postemergence
Method in brief: as §1

[17] = test system: chickweed (common chickweed, Stellaria media); conditions: Postemergence
Method in brief: as §1

[18] = test system: guineagrass (Panicum maximum); conditions: Postemergence
Method in brief: as §1

[19] = test system: sowthistle (common sowthistle, Sonchus oleraceous); conditions: Postemergence
Method in brief: as §1

[20] = 62 g ai/ha, scale 0 to 100 (0 no effect, 100 complete control)
[21] = 125 g ai/ha, scale 0 to 100 (0 no effect, 100 complete control)
[22] = 250 g ai/ha, scale 0 to 100 (0 no effect, 100 complete control)

COCCn1c(-c2cccc(F)c2)ncc(C(=O)C2=C(O)C3CCC(C3)C2=O)c1=O (stereo not shown) [Compound 235]
Plant response rating, Black Mustard ([1]; 31 g ai/ha): 80
Plant response rating, Black Mustard ([1]; 62 g ai/ha): 80
Plant response rating, Black Mustard ([1]; 125 g ai/ha): 98
Plant response rating, Black Mustard ([1]; 250 g ai/ha): 98
Plant response rating, Quackgrass ([2]; 31 g ai/ha, scale 0 to 100): 5
Plant response rating, Quackgrass [2, 20]: 30
Plant response rating, Quackgrass [2, 21]: 40
Plant response rating, Quackgrass [2, 22]: 70
Plant response rating, Foxtail, Green ([3]; 31 g ai/ha, scale 0 to 100): 70
Plant response rating, Foxtail, Green [3, 20]: 95
Plant response rating, Foxtail, Green [3, 21]: 98
Plant response rating, Foxtail, Green [3, 22]: 98
Plant response rating, Sandbur ([4]; 31 g ai/ha, scale 0 to 100): 75
Plant response rating, Sandbur [4, 20]: 75
Plant response rating, Sandbur [4, 21]: 75
Plant response rating, Sandbur [4, 22]: 75
Plant response rating, Barnyardgrass ([5]; 31 g ai/ha): 80
Plant response rating, Barnyardgrass ([5]; 62 g ai/ha): 80
Plant response rating, Barnyardgrass ([5]; 125 g ai/ha): 95
Plant response rating, Barnyardgrass ([5]; 250 g ai/ha): 95
Plant response rating, Dallisgrass ([6]; 31 g ai/ha, scale 0 to 100): 70
Plant response rating, Dallisgrass [6, 20]: 75
Plant response rating, Dallisgrass [6, 21]: 80
Plant response rating, Dallisgrass [6, 22]: 80
Plant response rating, Itchgrass ([7]; 31 g ai/ha, scale 0 to 100): 70
Plant response rating, Itchgrass [7, 20]: 75
Plant response rating, Itchgrass [7, 21]: 80
Plant response rating, Itchgrass [7, 22]: 90
Plant response rating, Johnsongrass ([8]; 31 g ai/ha, scale 0 to 100): 70
Plant response rating, Johnsongrass [8, 20]: 70
Plant response rating, Johnsongrass [8, 21]: 85
Plant response rating, Johnsongrass [8, 22]: 85
Plant response rating, Groundsel ([9]; 31 g ai/ha, scale 0 to 100): 100
Plant response rating, Groundsel [9, 20]: 100
Plant response rating, Groundsel [9, 21]: 100
Plant response rating, Groundsel [9, 22]: 100
Plant response rating, Ryegrass, Italian ([10]; 31 g ai/ha, scale 0 to 100): 5
Plant response rating, Ryegrass, Italian [10, 20]: 5
Plant response rating, Ryegrass, Italian [10, 21]: 5
Plant response rating, Ryegrass, Italian [10, 22]: 35
Plant response rating, Dayflower, VA ([11]; 31 g ai/ha, scale 0 to 100): 60
Plant response rating, Dayflower, VA [11, 20]: 70
Plant response rating, Dayflower, VA [11, 21]: 75
Plant response rating, Dayflower, VA [11, 22]: 75
Plant response rating, Field Bindweed ([12]; 31 g ai/ha, scale 0 to 100): 60
Plant response rating, Field Bindweed [12, 20]: 65
Plant response rating, Field Bindweed [12, 21]: 65
Plant response rating, Field Bindweed [12, 22]: 70
Plant response rating, Purslane ([13]; 31 g ai/ha, scale 0 to 100): 60
Plant response rating, Purslane [13, 20]: 60
Plant response rating, Purslane [13, 21]: 60
Plant response rating, Purslane [13, 22]: 70
Plant response rating, Mallow ([14]; 31 g ai/ha, scale 0 to 100): 10
Plant response rating, Mallow [14, 20]: 50
Plant response rating, Mallow [14, 21]: 70
Plant response rating, Mallow [14, 22]: 70
Plant response rating, Ragweed ([15]; 31 g ai/ha, scale 0 to 100): 70
Plant response rating, Ragweed [15, 20]: 70
Plant response rating, Ragweed [15, 21]: 80
Plant response rating, Ragweed [15, 22]: 80
Plant response rating, Prickly Sida ([16]; 31 g ai/ha, scale 0 to 100): 65
Plant response rating, Prickly Sida [16, 20]: 65
Plant response rating, Prickly Sida [16, 21]: 70
Plant response rating, Prickly Sida [16, 22]: 75
Plant response rating, Chickweed ([17]; 31 g ai/ha, scale 0 to 100): 5
Plant response rating, Chickweed [17, 20]: 30
Plant response rating, Chickweed [17, 21]: 60
Plant response rating, Chickweed [17, 22]: 70
Plant response rating, Guineagrass ([18]; 31 g ai/ha, scale 0 to 100): 75
Plant response rating, Guineagrass [18, 20]: 75
Plant response rating, Guineagrass [18, 21]: 75
Plant response rating, Guineagrass [18, 22]: 75
Plant response rating, Sowthistle ([19]; 31 g ai/ha, scale 0 to 100): 98
Plant response rating, Sowthistle [19, 20]: 98
Plant response rating, Sowthistle [19, 21]: 98
Plant response rating, Sowthistle [19, 22]: 98
